Test results taken from the NIST ThermoML archive (doi:10.1021/je100734t).
± gives the expanded uncertainty stated by the source.

Assay: xn = mol fraction of the nth substance listed
Settings: 101 kPa, Liquid; for speed of sound: Pulse-echo method

Cc1cccc(C)c1 [1,3-dimethylbenzene] + CCCCCCCCCCO
Settings | mass density, 293.15 K [kg/m3] | mass density, 303.15 K [kg/m3] | mass density, 313.15 K [kg/m3] | speed of sound, 293.15 K [m/s] | speed of sound, 303.15 K [m/s] | speed of sound, 313.15 K [m/s]
x1 = 0.0627 | 831.48 ± 0.43 | 824.51 ± 0.44 | 817.53 ± 0.45 | 1392 ± 2 | 1358 ± 2 | 1324 ± 2
x1 = 0.1424 | 833.39 ± 0.43 | 826.27 ± 0.44 | 819.18 ± 0.45 | 1388 ± 2 | 1352 ± 2 | 1318 ± 2
x1 = 0.2052 | 834.93 ± 0.43 | 827.72 ± 0.44 | 820.53 ± 0.45 | 1383 ± 2 | 1347 ± 2 | 1312 ± 2
x1 = 0.2618 | 836.35 ± 0.44 | 829.06 ± 0.45 | 821.78 ± 0.46 | 1379 ± 2 | 1343 ± 2 | 1308 ± 2
x1 = 0.3217 | 837.9 ± 0.44 | 830.53 ± 0.45 | 823.14 ± 0.46 | 1375 ± 2 | 1338 ± 2 | 1302 ± 2
x1 = 0.3934 | 839.84 ± 0.44 | 832.37 ± 0.45 | 824.85 ± 0.46 | 1369 ± 2 | 1332 ± 2 | 1296 ± 2
x1 = 0.4989 | 842.94 ± 0.45 | 835.28 ± 0.46 | 827.6 ± 0.47 | 1361 ± 2 | 1324 ± 2 | 1287 ± 2
x1 = 0.5581 | 844.81 ± 0.45 | 837.05 ± 0.46 | 829.26 ± 0.47 | 1357 ± 2 | 1319 ± 2 | 1282 ± 2
x1 = 0.6343 | 847.44 ± 0.46 | 839.52 ± 0.47 | 831.6 ± 0.48 | 1352 ± 2 | 1313 ± 2 | 1276 ± 2
x1 = 0.7131 | 850.41 ± 0.46 | 842.31 ± 0.47 | 834.24 ± 0.49 | 1348 ± 2 | 1308 ± 2 | 1270 ± 2
x1 = 0.7991 | 853.99 ± 0.47 | 845.71 ± 0.48 | 837.47 ± 0.49 | 1344 ± 2 | 1304 ± 2 | 1265 ± 2
x1 = 0.8465 | 856.11 ± 0.47 | 847.74 ± 0.48 | 839.4 ± 0.5 | 1342 ± 2 | 1302 ± 2 | 1262 ± 2
x1 = 0.8964 | 858.52 ± 0.48 | 850.09 ± 0.49 | 841.61 ± 0.5 | 1341 ± 2 | 1300 ± 2 | 1260 ± 2
x1 = 0.9421 | 860.9 ± 0.48 | 852.38 ± 0.49 | 843.82 ± 0.5 | 1341 ± 2 | 1300 ± 2 | 1259 ± 2
x1 = 1 | 864.18 ± 0.49 | 855.56 ± 0.5 | 846.9 ± 0.51 | 1340 ± 2 | 1300 ± 2 | 1259 ± 2

CCCCCCCCCCO [decan-1-ol] + CCc1ccccc1
Settings | mass density, 293.15 K [kg/m3] | mass density, 303.15 K [kg/m3] | mass density, 313.15 K [kg/m3] | speed of sound, 293.15 K [m/s] | speed of sound, 303.15 K [m/s] | speed of sound, 313.15 K [m/s]
x2 = 0 | 829.98 ± 0.42 | 823.1 ± 0.43 | 816.27 ± 0.43 | 1396 ± 2 | 1362 ± 2 | 1329 ± 2
x2 = 0.0666 | 831.5 ± 0.42 | 824.47 ± 0.43 | 817.46 ± 0.43 | 1391 ± 2 | 1356 ± 2 | 1322 ± 2
x2 = 0.1392 | 833.18 ± 0.42 | 826 ± 0.43 | 818.82 ± 0.43 | 1385 ± 2 | 1350 ± 2 | 1316 ± 2
x2 = 0.1932 | 834.47 ± 0.41 | 827.18 ± 0.42 | 819.88 ± 0.42 | 1381 ± 2 | 1345 ± 2 | 1310 ± 2
x2 = 0.2642 | 836.24 ± 0.41 | 828.8 ± 0.42 | 821.32 ± 0.42 | 1375 ± 2 | 1339 ± 2 | 1304 ± 2
x2 = 0.3355 | 838.11 ± 0.4 | 830.52 ± 0.41 | 822.85 ± 0.41 | 1369 ± 2 | 1333 ± 2 | 1297 ± 2
x2 = 0.3936 | 839.72 ± 0.4 | 832.03 ± 0.41 | 824.21 ± 0.41 | 1364 ± 2 | 1327 ± 2 | 1291 ± 2
x2 = 0.4483 | 841.33 ± 0.4 | 833.52 ± 0.41 | 825.58 ± 0.41 | 1360 ± 2 | 1322 ± 2 | 1286 ± 2
x2 = 0.5238 | 843.73 ± 0.39 | 835.78 ± 0.4 | 827.65 ± 0.4 | 1354 ± 2 | 1316 ± 2 | 1279 ± 2
x2 = 0.598 | 846.33 ± 0.39 | 838.23 ± 0.4 | 829.91 ± 0.4 | 1349 ± 2 | 1310 ± 2 | 1273 ± 2
x2 = 0.6621 | 848.79 ± 0.38 | 840.59 ± 0.39 | 832.13 ± 0.39 | 1344 ± 2 | 1305 ± 2 | 1268 ± 2
x2 = 0.7309 | 851.72 ± 0.38 | 843.4 ± 0.39 | 834.8 ± 0.39 | 1341 ± 2 | 1301 ± 2 | 1263 ± 2
x2 = 0.7953 | 854.7 ± 0.37 | 846.31 ± 0.38 | 837.56 ± 0.38 | 1338 ± 2 | 1298 ± 2 | 1259 ± 2
x2 = 0.8668 | 858.41 ± 0.36 | 849.96 ± 0.37 | 841.06 ± 0.37 | 1336 ± 2 | 1295 ± 2 | 1256 ± 2
x2 = 0.9396 | 862.65 ± 0.36 | 854.3 ± 0.37 | 845.13 ± 0.37 | 1336 ± 2 | 1295 ± 2 | 1255 ± 2
